Experimental data as given in patent US7173004B2, “Macrocyclic isoquinoline peptide inhibitors of hepatitis C virus” (Bristol-Myers Squibb Company, priority 2003, dated 2007).

Assays:
human liver cathepsin B = target: T1, human liver cathepsin B (Homo sapiens, UniProt P07858); experiment: Specificity assay, cathepsin B; assay type: biochemical; settings: read-out: Cathepsin B activity in the specificity assays (IC50)
T1 construct: purchased Sigma; host or cells: human liver (by the enzyme's name)
Description: (§1) The specificities of compounds of the present invention were determined against a variety of serine proteases: human neutrophil elastase (HNE), porcine pancreatic elastase (PPE) and human pancreatic chymotrypsin and one cysteine protease: human liver cathepsin B. In all cases a 96-well plate format protocol using calorimetric p-nitroaniline (pNA) substrate specific for each enzyme was used as described previously (PCT Patent Application No. WO 00/09543) with some modifications to the serine protease assays. All enzymes were purchased from Sigma while the substrates were from Bachem.
(§2) Each assay included a 2 hr enzyme-inhibitor pre-incubation at room temperature followed by addition of substrate and hydrolysis to ˜30% conversion as measured on a Spectramax Pro microplate reader. Compound concentrations varied from 100 to 0.4 micromolar (“μM”) depending on their potency. […]
(§3) The percentage of inhibition was calculated using the formula: [1−((UVinh−UVblank)/(UVctl−UVblank))]×100 […]

[1] = target: T2, human neutrophil elastase (HNE) (Homo sapiens, UniProt P08246); experiment: Specificity assay, human neutrophil elastase; assay type: biochemical; settings: read-out: HNE activity in the specificity assays (IC50)
T2 construct: purchased Sigma
T2 sequence (P08246 30-267): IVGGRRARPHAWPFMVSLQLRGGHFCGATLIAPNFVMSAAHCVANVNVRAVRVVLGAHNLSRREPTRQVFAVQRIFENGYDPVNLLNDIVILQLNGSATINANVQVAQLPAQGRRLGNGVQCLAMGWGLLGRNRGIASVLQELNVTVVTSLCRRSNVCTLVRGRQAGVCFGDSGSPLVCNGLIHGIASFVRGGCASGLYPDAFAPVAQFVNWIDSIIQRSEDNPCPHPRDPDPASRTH
Description: as §1, §2, §3

With CC(C)(C)OC(=O)N[C@H]1CCCCC/C=C\[C@@H]2C[C@@]2(C(=O)NS(C)(=O)=O)NC(=O)[C@@H]2C[C@@H](Oc3nccc4ccccc34)CN2C1=O [Compound 2, [18-(Isoquinolin-1-yloxy)-4-methanesulfonylaminocarbonyl-2,15-dioxo-3,16-diaza-tricyclo[14.3.0.0^4,6]nonadec-7-en-14-yl]-carbamic acid tert-butyl ester] the IC50 (human liver cathepsin B) was > 100 µM and the IC50 [1] was > 100 µM.
